According to patent publication US20170050045A1, “PHOTODYNAMIC THERAPY USING IN SITU NONLINEAR PHOTON UPCONVERSION OF NIR LIGHT BY BIOLOGICAL MEDIUM” (The Research Foundation for The State University Of New York, priority 2014, published 2017):

Columns and labels:
[1] = system: HeLa cells; assay: PDT phototoxicity in cultured HeLa cells, CARS/FWM/TPA vs TPA excitation (calcein AM / propidium iodide staining); format: cell-based; conditions: 90 μM, 90 min incubation, average of four series
Source text: Materials and Methods. Optical setup. The experimental setup used for the present nonlinear optical excitation of PDT utilized a custom made laser scanning microscopy system with two excitation NIR laser sources. A picosecond Nd:YVO4 laser (picoTRAIN IC-10000/532-4000, HighQ Laser) with pulse width ˜5 ps and a repetition rate of 76 MHz was used as the source for the Stokes wave ωs at the fundamental output of 1064 nm as well as for synchronous pumping of a tunable optical parametric oscillator (OPO, Levante Emerald, APE) by using its 532 second harmonic output with a pulse width of ˜4 ps. […] When the beating frequency ωp-ωs is tuned to be resonant with a vibrational mode of a selected molecular bond, the CARS signal together with its nonresonant electronic FWM background signal is detected at the anti-Stokes frequency of ωas=2ωp−ωs. Using our instrument setup, a sample can be excited and the imaged in the CARS/FWM mode in the vibrational frequency range of 900-3300 cm^−1 and simultaneously at 670-990 nm in the TPEF (two-photon excited fluorescence) or/and in the SHG mode. […] Thus, this experimental setup enables concurrent operation of the system in the PDT excitation mode as well as in the imaging mode (CARS/FWM/fluorescence) which is highly suitable for PDT process monitoring. […]

[2] = system: HeLa cells; assay: PDT phototoxicity in HeLa cells grown on collagen substrates, SHG excitation at 818 nm (detached and PI positive cells counted); format: cell-based
Experimental: To verify the efficiency of the different nonlinear-optical conversion mechanisms for PDT excitation, cell cultured samples were used in different lay-outs permitting separation of the relative contribution of one specific nonlinear process. All experiments were made in a Petri dish through the bottom optical glass window in an inverted microscopy configuration. When cells were grown directly on the optical glass window, the pump and Stokes waves were synchronized with a zero delay and the beams were focused into the cell culture treated with the photosensitizer, CARS/FWM signals were generated by the natural intercellular biomolecules of proteins or lipids. In this case, the CARS/FWM conversion was also supplemented by the TPA process directly in the photosensitizer and a combination of CARS/FWM/TPA was obtained (see diagram 1 in FIG. 3a). To separate the TPA contribution, a pulse delay of ˜5 ps between the pump and the Stokes waves was introduced which disabled the CARS/FWM process. Therefore, with the pulse delay t, TPA of photosensitizer produced the dominant PDT effect (see diagram 2 in FIG. 3a). We used another lay-out in which cells were grown on a thin layer of polymerized collagen gel (ordered collagen structures). When the pump and Stokes laser beams were focused in collagen and had zero delay, SHG/FWM/SFG (sum frequency generation) nonlinear interactions occurred in the collagen layer (see diagram 3 in FIG. 3a). To selectively look at the SHG contribution, a pulse delay was introduced which disabled the FWM and SFG processes. The second harmonic signal generated by the collagen structure propagated to reach the cells treated with the photosensitizer, and efficiently absorbed by it to excite PDT (see diagram 4 in FIG. 3a). The dose of laser radiation delivered to the sample was estimated to be ˜60 J/cm^2 at 812.6 or 818.8 nm; ˜30 J/cm^2 at 1064 nm per scan, for CARS/FWM in proteins/lipids cellular environmental medium; and ˜60 J/cm^2 for SHG in polymerized collagen gels.
Cell culture, drug treatment and PDT design. The process of PDT was modeled on the cultured HeLa cells. FIG. 3b diagrammatically illustrates the PDT procedure. HeLa cells were grown in Advanced DMEM (Life Technologies), supplemented with 2.5% fetal calf serum (FBS) (Sigma, St. Louis, Mo.), 1% glutamax (Life Technologies), 1% Antibiotic Antimycotic Solution (Sigma) at 37° C. in a humidified atmosphere containing 5% CO2. Prior to the incorporation of the photosensitizer and PDT experiments, cells were placed into glass-bottom dishes (MatTek, Ashland, Mass.). In the experiments involving SHG, the glass-bottom dishes were coated either with monomeric collagen (Sigma) or with collagen gels polymerized on the glass window. A stock solution of Chlorin-e6 was prepared in DMSO. The PDT process in the cultured cells was initiated by nonlinear optical excitation of the Chlorin-e6 photosensitizer, which was diluted to a final concentration of 90 μM in Advanced DMEM containing 15% FBS and 0.005% Tween 80. Cells were incubated with the drug for ninety minutes, thoroughly washed to remove unincorporated drug and subsequently used for optical exposure for PDT treatment.
During the laser irradiation, cells were maintained at 37° C. and 5% CO2 in a Live-Cell incubator (Pathology Devices, Westminster, Md.) mounted on the microscope stage. Following the laser irradiation, the cells were incubated for 4 hours in a fresh regular medium at 37° C. […]

C=Cc1c(C)c2cc3nc(c(CC(=O)O)c4[nH]c(cc5nc(cc1[nH]2)C(C)=C5CC)c(C)c4C(=O)O)[C@@H](CCC(=O)O)[C@@H]3C [Chlorin e6]
necrotic cells (PI positive cells) ([1]; CARS/FWM/TPA mode (zero pulse delay), 818 nm pump + 1064 nm Stokes, 70 scans, ~6300 J/cm^2): 40% | necrotic cells (PI positive cells) ([1]; TPA mode (delayed pulses), same number of scans (70)): 20% | difference in phototoxicity between polymerized and monomeric collagen groups ([2]; 50 scans, 818 nm, 3000 J/cm^2): tenfold | detachment from the substrate, or positive PI staining of cells ([2]; cells on fibrillar (polymerized) collagen, 50 scans by 818 nm pulsed laser, 3000 J/cm^2, 90 μM): up to 50% | detached and PI positive cells ([2]; cells on fibrillar collagen substrates, 75 scans, 818 nm, ~4500/cm^2, 90 μM): ~70% | cytotoxicity, by counting of the detached and PI positive cells ([2]; cells on monomeric collagen, 50 scans by 818 nm pulsed laser, 3000 J/cm^2, 90 μM): less than 5% | cells either detached or displayed PI stain ([2]; cells on monomeric collagen, 75 scans, 818 nm, ~4500/cm^2, 90 μM): ~35%
